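Tested at 5 concentrations; 48 h exposure; 96-well plates; endpoints linearly interpolated, else capped at highest concentration. Here, GI50 denotes the concentration required for 50% inhibition of growth.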 Activity calls are given as the source filed them. Cut-off read from the data, not from the text of the source: active = GI50 up to about 1.1 µM and inactive = higher.
How the values were obtained:
Test in all cases: NCI-60 cell line screen, 48 h
RXF 393 = tested on: RXF 393
SNB-75 = tested on: SNB-75
NCI-H226 = tested on: NCI-H226
HT-29 = tested on: HT-29
786-0 = tested on: 786-0
K562 = tested on: K562
KM12 = tested on: KM12
HCT-15 = tested on: HCT-15
SNB-19 = tested on: SNB-19
M19-MEL = tested on: M19-MEL
HCT-116 = tested on: HCT-116
COLO 205 = tested on: COLO 205
M14 = tested on: M14
CAKI-1 = tested on: CAKI-1
SW-620 = tested on: SW-620
SN12C = tested on: SN12C
RPMI-8226 = tested on: RPMI-8226
A549 = tested on: A549
SF-539 = tested on: SF-539
UACC-257 = tested on: UACC-257
Malme-3M = tested on: Malme-3M
OVCAR-3 = tested on: OVCAR-3
HL-60 = tested on: HL-60
LOX IMVI = tested on: LOX IMVI
OVCAR-8 = tested on: OVCAR-8
UACC-62 = tested on: UACC-62
SK-MEL-28 = tested on: SK-MEL-28
IGROV-1 = tested on: IGROV-1
SNB-78 = tested on: SNB-78
NCI-H522 = tested on: NCI-H522
HCC 2998 = tested on: HCC 2998
DMS-273 = tested on: DMS-273
SK-MEL-5 = tested on: SK-MEL-5
EKVX = tested on: EKVX
TK-10 = tested on: TK-10
CCRF-CEM = tested on: CCRF-CEM
DLD-1 = tested on: DLD-1
NCI-H23 = tested on: NCI-H23
HOP-18 = tested on: HOP-18
SF-295 = tested on: SF-295
MOLT-4 = tested on: MOLT-4
SK-OV-3 = tested on: SK-OV-3
DMS-114 = tested on: DMS-114
LXFL 529 = tested on: LXFL 529
HOP-92 = tested on: HOP-92
U-251 = tested on: U-251
UO-31 = tested on: UO-31
OVCAR-4 = tested on: OVCAR-4
ACHN = tested on: ACHN
NCI-H460 = tested on: NCI-H460
HOP-62 = tested on: HOP-62
SK-MEL-2 = tested on: SK-MEL-2
OVCAR-5 = tested on: OVCAR-5
SR = tested on: SR
KM-20L2 = tested on: KM-20L2
SF-268 = tested on: SF-268

Cc1[nH]nc2c1C(=O)C=C(N(CCO)c1ccccc1)C2=O
GI50 (RXF 393): > 100 µM (inactive) | GI50 (SNB-75): 88.9 µM (inactive) | GI50 (NCI-H226): > 100 µM (inactive) | GI50 (HT-29): > 100 µM (inactive) | GI50 (786-0): > 100 µM (inactive) | GI50 (K562): > 100 µM (inactive) | GI50 (KM12): > 100 µM (inactive) | GI50 (HCT-15): > 100 µM | GI50 (SNB-19): > 100 µM (inactive) | GI50 (M19-MEL): > 100 µM (inactive) | GI50 (HCT-116): > 100 µM (inactive) | GI50 (COLO 205): > 100 µM (inactive) | GI50 (M14): > 100 µM (inactive) | GI50 (CAKI-1): > 100 µM (inactive) | GI50 (SW-620): > 100 µM (inactive) | GI50 (SN12C): > 100 µM (inactive) | GI50 (RPMI-8226): > 100 µM (inactive) | GI50 (A549): > 100 µM (inactive) | GI50 (SF-539): > 100 µM (inactive) | GI50 (UACC-257): > 100 µM (inactive) | GI50 (Malme-3M): > 100 µM (inactive) | GI50 (OVCAR-3): > 100 µM (inactive) | GI50 (HL-60): > 100 µM (inactive) | GI50 (LOX IMVI): 4.05 µM (inactive) | GI50 (OVCAR-8): > 100 µM (inactive) | GI50 (UACC-62): > 100 µM (inactive) | GI50 (SK-MEL-28): > 100 µM (inactive) | GI50 (IGROV-1): > 100 µM (inactive) | GI50 (SNB-78): > 100 µM (inactive) | GI50 (NCI-H522): > 100 µM (inactive) | GI50 (HCC 2998): > 100 µM (inactive) | GI50 (DMS-273): > 100 µM (inactive) | GI50 (SK-MEL-5): > 100 µM (inactive) | GI50 (EKVX): > 100 µM (inactive) | GI50 (TK-10): > 100 µM (inactive) | GI50 (CCRF-CEM): > 100 µM (inactive) | GI50 (DLD-1): > 100 µM (inactive) | GI50 (NCI-H23): > 100 µM (inactive) | GI50 (HOP-18): > 100 µM (inactive) | GI50 (SF-295): > 100 µM (inactive) | GI50 (MOLT-4): > 100 µM (inactive) | GI50 (SK-OV-3): > 100 µM (inactive) | GI50 (DMS-114): > 100 µM (inactive) | GI50 (LXFL 529): > 100 µM (inactive) | GI50 (HOP-92): > 100 µM (inactive) | GI50 (U-251): > 100 µM (inactive) | GI50 (UO-31): > 100 µM (inactive)

COc1cc(C(=O)O)cc2c1[nH]c1ccccc12 [MUKOEIC ACID]
GI50 (OVCAR-4): > 25 µM (inactive) | GI50 (NCI-H226): > 25 µM (inactive) | GI50 (ACHN): > 25 µM (inactive) | GI50 (HT-29): > 25 µM (inactive) | GI50 (786-0): > 25 µM (inactive) | GI50 (NCI-H460): > 25 µM (inactive) | GI50 (K562): > 25 µM (inactive) | GI50 (KM12): > 25 µM (inactive) | GI50 (HCT-15): > 25 µM | GI50 (HOP-62): > 25 µM (inactive) | GI50 (SNB-19): > 25 µM (inactive) | GI50 (M19-MEL): > 25 µM (inactive) | GI50 (SK-MEL-2): > 25 µM (inactive) | GI50 (HCT-116): > 25 µM (inactive) | GI50 (COLO 205): > 25 µM (inactive) | GI50 (M14): > 25 µM (inactive) | GI50 (SW-620): > 25 µM (inactive) | GI50 (SN12C): > 25 µM (inactive) | GI50 (RPMI-8226): > 25 µM (inactive) | GI50 (A549): > 25 µM (inactive) | GI50 (SF-539): > 25 µM (inactive) | GI50 (OVCAR-5): > 25 µM (inactive) | GI50 (SR): > 25 µM (inactive) | GI50 (Malme-3M): > 25 µM (inactive) | GI50 (OVCAR-3): > 25 µM (inactive) | GI50 (HL-60): > 25 µM (inactive) | GI50 (LOX IMVI): > 25 µM (inactive) | GI50 (OVCAR-8): > 25 µM (inactive) | GI50 (UACC-62): > 25 µM (inactive) | GI50 (SK-MEL-28): > 25 µM (inactive) | GI50 (IGROV-1): > 25 µM (inactive) | GI50 (SNB-78): > 25 µM (inactive) | GI50 (KM-20L2): > 25 µM (inactive) | GI50 (NCI-H522): > 25 µM (inactive) | GI50 (HCC 2998): > 25 µM (inactive) | GI50 (DMS-273): > 25 µM (inactive) | GI50 (SK-MEL-5): > 25 µM (inactive) | GI50 (TK-10): > 25 µM (inactive) | GI50 (CCRF-CEM): > 25 µM (inactive) | GI50 (DLD-1): > 25 µM (inactive) | GI50 (MOLT-4): > 25 µM (inactive) | GI50 (SK-OV-3): > 25 µM (inactive) | GI50 (DMS-114): > 25 µM (inactive) | GI50 (LXFL 529): > 25 µM (inactive) | GI50 (HOP-92): > 25 µM (inactive) | GI50 (U-251): > 25 µM (inactive) | GI50 (UO-31): > 25 µM (inactive) | GI50 (SF-268): > 25 µM (inactive)

CC(=O)Oc1cc(OC(C)=O)c2c(=O)c3ccccc3n(C)c2c1
GI50 (RXF 393): 34 µM (inactive) | GI50 (OVCAR-4): 48.9 µM (inactive) | GI50 (SNB-75): 27.4 µM (inactive) | GI50 (NCI-H226): 17.1 µM (inactive) | GI50 (ACHN): 22 µM (inactive) | GI50 (HT-29): 23.7 µM (inactive) | GI50 (NCI-H460): 19.4 µM (inactive) | GI50 (KM12): 33.2 µM (inactive) | GI50 (HCT-15): 42.1 µM | GI50 (SNB-19): 33.7 µM (inactive) | GI50 (M19-MEL): 21.6 µM (inactive) | GI50 (SK-MEL-2): 33 µM (inactive) | GI50 (HCT-116): 26.1 µM (inactive) | GI50 (SN12C): 25.5 µM (inactive) | GI50 (A549): 41.3 µM (inactive) | GI50 (SF-539): 18.7 µM (inactive) | GI50 (UACC-257): 30.1 µM (inactive) | GI50 (Malme-3M): 25.7 µM (inactive) | GI50 (OVCAR-3): 56.9 µM (inactive) | GI50 (LOX IMVI): 11.5 µM (inactive) | GI50 (OVCAR-8): 16 µM (inactive) | GI50 (UACC-62): 31.8 µM (inactive) | GI50 (SK-MEL-28): 25.4 µM (inactive) | GI50 (IGROV-1): 14.7 µM (inactive) | GI50 (SNB-78): 31.6 µM (inactive) | GI50 (NCI-H522): 10.4 µM (inactive) | GI50 (DMS-273): 16 µM (inactive) | GI50 (SK-MEL-5): 15.1 µM (inactive) | GI50 (TK-10): 29.8 µM (inactive) | GI50 (DLD-1): 21.9 µM (inactive) | GI50 (NCI-H23): 22.6 µM (inactive) | GI50 (HOP-18): 14 µM (inactive) | GI50 (SF-295): 13.1 µM (inactive) | GI50 (MOLT-4): 38 µM (inactive) | GI50 (SK-OV-3): 25.2 µM (inactive) | GI50 (DMS-114): 18.4 µM (inactive) | GI50 (LXFL 529): 34.8 µM (inactive) | GI50 (UO-31): 21.2 µM (inactive) | GI50 (SF-268): 23.2 µM (inactive)
